Source: ChEMBL document CHEMBL1201862, “PubChem BioAssay data set” (2004)
Activity calls are given as the source filed them.

What was measured:
[1] = target: T1, Sentrin-specific protease 7 (Homo sapiens, UniProt Q9BQF6); type: functional;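 note: Luminescence-based dose-response confirmation of ultra-high-throughput screening hits, measuring inhibition of SENP7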
T1 sequence (Q9BQF6 whole entry): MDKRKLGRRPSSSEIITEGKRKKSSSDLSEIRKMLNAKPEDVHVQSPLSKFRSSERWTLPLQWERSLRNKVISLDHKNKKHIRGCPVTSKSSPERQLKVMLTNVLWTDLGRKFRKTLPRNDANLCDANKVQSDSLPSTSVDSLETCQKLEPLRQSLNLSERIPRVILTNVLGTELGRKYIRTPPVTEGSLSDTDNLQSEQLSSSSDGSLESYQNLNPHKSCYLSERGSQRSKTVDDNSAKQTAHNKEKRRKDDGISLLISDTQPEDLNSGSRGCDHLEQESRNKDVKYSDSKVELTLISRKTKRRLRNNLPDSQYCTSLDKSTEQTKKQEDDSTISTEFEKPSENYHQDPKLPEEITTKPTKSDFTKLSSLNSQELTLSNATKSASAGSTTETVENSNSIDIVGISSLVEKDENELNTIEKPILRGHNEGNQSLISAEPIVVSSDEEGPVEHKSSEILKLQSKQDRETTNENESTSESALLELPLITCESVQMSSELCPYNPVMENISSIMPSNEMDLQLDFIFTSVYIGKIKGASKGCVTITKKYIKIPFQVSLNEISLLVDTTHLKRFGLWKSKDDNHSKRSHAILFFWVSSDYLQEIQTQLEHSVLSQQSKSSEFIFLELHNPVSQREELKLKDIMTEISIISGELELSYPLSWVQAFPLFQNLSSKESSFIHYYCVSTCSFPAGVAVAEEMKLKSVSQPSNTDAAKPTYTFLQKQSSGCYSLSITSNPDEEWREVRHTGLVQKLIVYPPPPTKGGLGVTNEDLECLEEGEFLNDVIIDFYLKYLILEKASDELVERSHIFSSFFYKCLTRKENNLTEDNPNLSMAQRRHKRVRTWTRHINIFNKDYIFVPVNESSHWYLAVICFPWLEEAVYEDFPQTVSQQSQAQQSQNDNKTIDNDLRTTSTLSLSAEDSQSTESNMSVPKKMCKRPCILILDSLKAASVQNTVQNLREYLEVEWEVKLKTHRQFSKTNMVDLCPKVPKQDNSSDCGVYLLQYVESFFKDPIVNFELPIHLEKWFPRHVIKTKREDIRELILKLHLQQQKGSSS

[2] = target: T2, Caspase-3 (Homo sapiens, UniProt P42574); type: functional;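 note: Dose-response selectivity test against caspase-3 for candidate inhibitors of sentrin-specific proteases (SENPs)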
T2 sequence (P42574 whole entry): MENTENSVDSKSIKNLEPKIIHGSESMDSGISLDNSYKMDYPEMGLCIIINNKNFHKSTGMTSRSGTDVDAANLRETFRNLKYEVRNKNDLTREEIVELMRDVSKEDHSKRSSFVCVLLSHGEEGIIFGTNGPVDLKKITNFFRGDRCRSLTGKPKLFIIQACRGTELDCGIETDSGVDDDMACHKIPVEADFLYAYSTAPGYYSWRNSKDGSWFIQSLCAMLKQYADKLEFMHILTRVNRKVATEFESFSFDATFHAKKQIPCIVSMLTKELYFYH

[3] = target: T3, Sentrin-specific protease 6 (Homo sapiens, UniProt Q9GZR1); type: functional;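 note: Luminescence-based dose-response confirmatory assay of SENP6 inhibition, following up an ultra-high-throughput screen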
T3 sequence (Q9GZR1 whole entry): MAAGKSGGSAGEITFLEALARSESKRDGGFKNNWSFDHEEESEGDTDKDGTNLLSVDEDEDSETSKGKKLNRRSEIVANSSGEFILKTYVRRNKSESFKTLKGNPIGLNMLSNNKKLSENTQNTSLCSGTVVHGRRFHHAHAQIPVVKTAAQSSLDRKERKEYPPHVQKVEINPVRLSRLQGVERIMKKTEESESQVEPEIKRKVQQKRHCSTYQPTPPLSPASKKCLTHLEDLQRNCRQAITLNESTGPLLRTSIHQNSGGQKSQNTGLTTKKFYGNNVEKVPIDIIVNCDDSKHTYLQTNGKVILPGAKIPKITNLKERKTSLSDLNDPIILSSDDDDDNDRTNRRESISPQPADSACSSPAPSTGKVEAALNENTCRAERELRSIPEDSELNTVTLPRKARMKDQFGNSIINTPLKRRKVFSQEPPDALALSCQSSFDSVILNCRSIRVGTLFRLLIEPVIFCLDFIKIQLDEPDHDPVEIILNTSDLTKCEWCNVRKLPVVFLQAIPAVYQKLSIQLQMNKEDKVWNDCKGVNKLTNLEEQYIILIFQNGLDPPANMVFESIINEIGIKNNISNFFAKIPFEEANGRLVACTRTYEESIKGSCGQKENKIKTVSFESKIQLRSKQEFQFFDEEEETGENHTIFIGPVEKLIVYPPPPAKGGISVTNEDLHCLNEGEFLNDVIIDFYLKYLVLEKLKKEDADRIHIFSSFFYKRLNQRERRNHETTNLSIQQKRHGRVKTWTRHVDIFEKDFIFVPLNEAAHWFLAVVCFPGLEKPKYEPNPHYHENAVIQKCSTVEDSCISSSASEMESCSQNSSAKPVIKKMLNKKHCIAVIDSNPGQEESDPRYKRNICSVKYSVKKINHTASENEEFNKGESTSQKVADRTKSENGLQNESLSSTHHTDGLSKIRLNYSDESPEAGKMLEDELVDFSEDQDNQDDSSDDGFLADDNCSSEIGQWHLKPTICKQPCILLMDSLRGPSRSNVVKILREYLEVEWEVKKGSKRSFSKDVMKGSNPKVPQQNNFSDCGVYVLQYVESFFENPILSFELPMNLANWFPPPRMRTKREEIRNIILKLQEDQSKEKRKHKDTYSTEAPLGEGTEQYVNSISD

[4] = target: T4, Sentrin-specific protease 8 (Homo sapiens, UniProt Q96LD8); type: functional;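 note: luminescence read-out of SENP8 inhibition, dose-response confirmation following an ultra-high-throughput screen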
T4 sequence (Q96LD8 whole entry): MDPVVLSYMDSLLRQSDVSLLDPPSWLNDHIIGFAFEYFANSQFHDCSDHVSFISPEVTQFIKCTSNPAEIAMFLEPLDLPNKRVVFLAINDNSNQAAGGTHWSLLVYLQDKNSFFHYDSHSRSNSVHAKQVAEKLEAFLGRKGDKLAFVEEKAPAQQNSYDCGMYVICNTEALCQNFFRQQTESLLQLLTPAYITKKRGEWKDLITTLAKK

[5] = test system: HEK293; test: EBV LMP1 TES2 canonical NF-kB signalling blockers – cell-based, HEK293, luciferase, cherry-pick, dose response (AID 588343); type: functional; conditions: Homo sapiens
[6] = target: Genome polyprotein (dengue virus type 2, UniProt P29990); test: flavivirus cap methylation enzyme inhibition – biochemical, confirmation dose response, primary screen (AID 588689); type: functional
[7] = test system: Streptococcus sp. 'group A'; test: Streptococcus pyogenes SK(-)GAS viability under kanamycin – luminescence, BacTiterGlo, confirmation, counter-screen for streptokinase expression inhibitor project, dose response (AID 1900); type: functional, organism-based
[8] = target: T5, Heat shock factor protein 1 (Mus musculus, UniProt P38532); test: decrease of HSF1-responsive luciferase luminescence – cell-based, NIH3T3, dose retest, confirmation (AID 2382); type: functional;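 note: NIH3T3 fibroblasts with HSF1-driven luciferase reporter stressed by proteasome inhibitor MG132; luminescence from HSF1-driven luciferase expression after 8 hours of MG132 stress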
T5 sequence (P38532 whole entry): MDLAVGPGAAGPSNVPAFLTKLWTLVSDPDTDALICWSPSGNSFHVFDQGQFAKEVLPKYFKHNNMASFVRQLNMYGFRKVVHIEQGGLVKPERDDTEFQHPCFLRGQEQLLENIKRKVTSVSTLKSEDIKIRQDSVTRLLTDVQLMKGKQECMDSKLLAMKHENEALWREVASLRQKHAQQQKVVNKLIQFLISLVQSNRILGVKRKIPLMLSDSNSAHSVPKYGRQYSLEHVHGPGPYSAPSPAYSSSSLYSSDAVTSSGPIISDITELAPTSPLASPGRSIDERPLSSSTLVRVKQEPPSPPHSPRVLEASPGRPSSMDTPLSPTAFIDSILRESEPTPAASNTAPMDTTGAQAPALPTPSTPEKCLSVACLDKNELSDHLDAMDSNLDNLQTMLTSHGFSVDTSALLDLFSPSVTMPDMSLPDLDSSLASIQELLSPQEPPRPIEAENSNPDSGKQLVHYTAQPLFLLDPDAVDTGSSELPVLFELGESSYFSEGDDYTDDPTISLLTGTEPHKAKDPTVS

[9] = test system: Streptococcus; test: GAS UMAA2166 growth inhibition – luminescence, BacTiterGlo, counter-screen for streptokinase expression inhibitor project, dose response (AID 1915); type: functional, organism-based;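 note: potency for reduction of bacterial viability or growth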
[10] = target: T6, Streptokinase A (Streptococcus pyogenes serotype M1, UniProt P10520); test: viability-normalized secreted streptokinase activity reduction – plasminogen activation absorbance, OD405, dose response (AID 1914); type: functional, Streptococcus pyogenes M1 GAS;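 note: secreted streptokinase activity via plasminogen activation per viability signal from cell pellet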
T6 sequence (P10520 whole entry): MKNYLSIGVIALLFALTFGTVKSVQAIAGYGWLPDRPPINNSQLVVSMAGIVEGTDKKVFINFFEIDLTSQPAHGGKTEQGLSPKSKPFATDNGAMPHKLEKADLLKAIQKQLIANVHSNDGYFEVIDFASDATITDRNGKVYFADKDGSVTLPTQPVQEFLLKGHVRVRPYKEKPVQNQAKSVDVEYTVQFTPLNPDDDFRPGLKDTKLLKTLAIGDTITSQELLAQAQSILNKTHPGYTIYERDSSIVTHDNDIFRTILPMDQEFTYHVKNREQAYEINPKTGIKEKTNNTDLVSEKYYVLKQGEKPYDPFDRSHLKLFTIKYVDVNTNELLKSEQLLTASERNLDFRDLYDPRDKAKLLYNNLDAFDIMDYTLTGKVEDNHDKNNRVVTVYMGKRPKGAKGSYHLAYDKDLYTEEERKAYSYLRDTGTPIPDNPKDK

[11] = Counterscreen for inhibitors of Trypanosoma brucei methionyl tRNA synthetase (MetRS): Luminescence-based cell-based high throughput dose response assay to identify compounds that are cytotoxic to Jurkat human T lymphocyte cells.; type: functional
[12] = target: T7, Methionyl-tRNA synthetase, putative (Trypanosoma brucei brucei, UniProt Q38C91); type: functional, Trypanosoma brucei brucei strain 927/4 GUTat10.1;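 note: Read-out by fluorescence polarization, run as a confirmatory high-throughput counterscreen; potency of MetRS inhibitors measured by reduced AMP formation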
T7 sequence (Q38C91 whole entry): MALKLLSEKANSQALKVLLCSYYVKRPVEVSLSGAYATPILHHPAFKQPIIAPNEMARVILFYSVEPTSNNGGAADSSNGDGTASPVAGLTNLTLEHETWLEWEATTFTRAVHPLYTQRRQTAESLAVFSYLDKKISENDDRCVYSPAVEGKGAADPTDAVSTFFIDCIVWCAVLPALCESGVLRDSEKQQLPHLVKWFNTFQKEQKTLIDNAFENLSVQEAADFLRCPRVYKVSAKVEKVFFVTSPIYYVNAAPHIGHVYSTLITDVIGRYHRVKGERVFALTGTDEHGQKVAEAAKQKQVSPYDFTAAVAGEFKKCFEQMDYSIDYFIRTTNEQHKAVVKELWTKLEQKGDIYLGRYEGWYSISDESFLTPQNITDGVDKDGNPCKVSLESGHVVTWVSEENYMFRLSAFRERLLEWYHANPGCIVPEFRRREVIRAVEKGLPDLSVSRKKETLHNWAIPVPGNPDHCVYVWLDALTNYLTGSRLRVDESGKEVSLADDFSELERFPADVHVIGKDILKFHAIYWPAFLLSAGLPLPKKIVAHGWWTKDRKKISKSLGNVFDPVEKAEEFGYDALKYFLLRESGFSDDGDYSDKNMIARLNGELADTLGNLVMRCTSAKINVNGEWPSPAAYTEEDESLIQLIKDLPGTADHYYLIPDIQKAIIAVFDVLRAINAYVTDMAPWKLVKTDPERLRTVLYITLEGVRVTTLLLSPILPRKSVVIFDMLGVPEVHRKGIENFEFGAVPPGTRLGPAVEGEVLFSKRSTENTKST

[13] = reduction of Shn3 3'UTR-driven luciferase in osteoblasts – cell-based, Clone20 osteoblasts, firefly luciferase, cherry-picked, dose response (AID 624132); type: functional;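 note: firefly luciferase luminescence from reporter carrying the Shn3 3'UTR in osteoblasts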
[14] = loss of viability in HepG2 cells – cell-based, CellTiter-Glo, cherry-picked, cytotoxicity control for Shn3 inhibitor project, dose response (AID 624134); type: functional
[15] = non-specific 3'UTR reporter inhibition in Clone20-Shn3RL – cell-based, Renilla luciferase, cherry-picked, counter-screen for Shn3 inhibitor project, dose response (AID 624133); type: functional
[16] = target: T8, Calpain-2 catalytic subunit (Sus scrofa, UniProt P43367); test: m-calpain protease blockers, concentration series – biochemical, fluorogenic peptide substrate, dose response (AID 1420); type: functional
T8 sequence (P43367 whole entry): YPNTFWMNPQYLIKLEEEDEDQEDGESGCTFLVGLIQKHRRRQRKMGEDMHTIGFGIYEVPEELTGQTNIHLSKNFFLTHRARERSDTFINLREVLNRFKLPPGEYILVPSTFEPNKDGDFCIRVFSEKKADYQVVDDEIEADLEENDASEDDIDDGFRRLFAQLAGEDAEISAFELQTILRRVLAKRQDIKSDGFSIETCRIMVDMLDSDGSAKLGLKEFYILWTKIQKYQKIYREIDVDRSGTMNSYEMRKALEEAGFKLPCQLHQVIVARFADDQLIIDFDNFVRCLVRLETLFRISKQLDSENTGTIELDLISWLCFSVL

Chain of Genome polyprotein (P29990 2492-3391 limits assumed): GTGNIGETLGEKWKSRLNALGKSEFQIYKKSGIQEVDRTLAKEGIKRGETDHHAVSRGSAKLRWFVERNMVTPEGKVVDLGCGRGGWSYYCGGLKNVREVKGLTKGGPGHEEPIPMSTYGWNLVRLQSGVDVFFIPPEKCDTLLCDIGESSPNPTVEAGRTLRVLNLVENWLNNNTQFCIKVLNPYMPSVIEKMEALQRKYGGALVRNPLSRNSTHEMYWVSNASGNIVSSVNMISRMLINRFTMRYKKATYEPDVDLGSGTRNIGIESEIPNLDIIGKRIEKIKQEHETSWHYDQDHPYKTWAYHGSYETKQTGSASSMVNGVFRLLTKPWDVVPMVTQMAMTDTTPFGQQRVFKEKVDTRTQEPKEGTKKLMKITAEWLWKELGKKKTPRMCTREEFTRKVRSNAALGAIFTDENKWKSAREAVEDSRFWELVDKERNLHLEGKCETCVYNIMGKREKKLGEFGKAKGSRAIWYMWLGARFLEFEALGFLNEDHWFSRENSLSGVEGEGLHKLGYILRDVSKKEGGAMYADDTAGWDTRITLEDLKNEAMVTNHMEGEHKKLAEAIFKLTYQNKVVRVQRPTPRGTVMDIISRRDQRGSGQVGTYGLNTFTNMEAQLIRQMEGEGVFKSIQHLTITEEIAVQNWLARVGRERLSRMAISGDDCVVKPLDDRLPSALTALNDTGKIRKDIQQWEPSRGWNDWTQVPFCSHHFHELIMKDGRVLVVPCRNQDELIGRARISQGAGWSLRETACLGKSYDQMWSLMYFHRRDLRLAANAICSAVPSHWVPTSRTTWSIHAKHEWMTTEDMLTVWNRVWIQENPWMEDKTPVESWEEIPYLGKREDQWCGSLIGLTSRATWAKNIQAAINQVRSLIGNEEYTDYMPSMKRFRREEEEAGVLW

SMILES	IC50 [1]	IC50 [2]	IC50 [3]	IC50 [4]	AC50 [5]	also measured
Nc1ccccc1C#Cc1ccc([N+](=O)[O-])cc1	6.02 µM (active)	23.2 µM (active)	31 µM (active)	80 µM (active)	–	–
O=C(N/N=C/c1cccc(O)c1)c1ccc2c(c1)OCCO2	–	–	–	–	0.889 µM (active)	–
O=C(O)CN1C(=O)/C(=C\c2ccccc2OCc2ccc(Cl)cc2Cl)SC1=S	–	–	–	–	12.7 µM (active)	IC50 [6]: 87.6 µM (active); EC50 [7]: 4.28 µM (active); EC50 [8]: 2.58 µM (active); EC50 [9]: 32.4 µM (active); EC50 [10]: 17.9 µM (inconclusive)
O=C(Nc1cccnc1)c1ccc(COc2cc(Cl)ccc2Cl)o1	–	–	–	–	–	IC50 [11]: 12.8 µM (inactive); IC50 [12]: 23.5 µM (inactive)
CCOC(=O)c1c(C)[nH]c(N=Nc2cccc(C)c2)c1C	5.37 µM (active)	40.3 µM (active)	18 µM (active)	14.7 µM (active)	–	–
Fc1ccc2[nH]c3c(N4CCN(c5ccccc5)CC4)ncnc3c2c1	–	–	–	–	6.19 µM (active)	AC50 [13]: 3.78 µM (active); AC50 [14]: 31.5 µM (active); AC50 [15]: 5.5 µM (active)
CCCc1ccc(OC(=O)c2ccc(O)cc2Cl)cc1	8.1 µM (active)	38.4 µM (active)	8.84 µM (active)	9.08 µM (active)	–	IC50 [16]: 3.76 µM (not active)
